{"source": "patent US11291659B2", "about": "“P38 kinase inhibitors reduce DUX4 and downstream gene expression for the treatment of FSHD” (Fulcrum Therapeutics, Inc., priority 2017, dated 2022)", "format_in_all_cases": "cell-based, Human", "key": {"[1]": {"test_system": "MBD3L2 mRNA (DUX4 downstream gene)", "assay": "MBD3L2 mRNA expression by qPCR in FSHD myotubes", "description": "Cell Plating: Performed three days prior to treatment, 10000 cells were plated per well on gelatinized 96-well plates, or 100000 cells on gelatinized 6-well plates.\n(§1) For ASO or compound treatments cells were plate into 100 μL of Promocell growth medium containing ASO or compounds at the described concentrations.\n(§2) On day 0, change to differentiation media. Remove plates from the incubator and aspirate the growth medium, Wash once with PBS, 100 μL for 96-wells and 1 mL for a 6-well plate, Add 100 μL or 2 mL of differentiation medium per well, 96- or 6-well respectively. Add antisense oligonucleotides or drug at the desire concentration and put back in the incubator. Fusion should start within day 1-2. Incubate for 3-4 days.\n(§3) Cells were removed from the incubator and media aspirated. Quickly lysed following one of the following protocols: For lysis in 96-well plates direct lysis and one-step RT-Preamp qPCR protocol described below. For each 96-well prepare a mix containing: 19.5 μL Roche Realtime Ready lysis buffer, 0.25 μL RNAse inhibitor, 0.25 μL DNAseI (from Thermo not the included one in the kit). 20 μL of the mix was added to each well, mix 5 times and incubated 5 minutes at RT or alternatively shaken vigorously for 15 minutes. Lysis was observed under the microscope. Samples were frozen −80° C. at least for 15 minutes,\n(§4) For qPCR, dilute 1:10 and use 2 μL for a 10 μL 1-step RT-qPCR reaction. For detection of GAPDH, RPLP0, TBP, MYOG, FRG1, MYH3, ACTN2, etc.). Per 10 μL reaction: RNA (1:10 dilution lysate) 2 μL, Fast Advanced Taqman Master Mix (2×) 5 μL, RT enzyme mix (40×) 0.25 μL, Taqman probe set (20×) 0.5 μL, H2O 2.25 μL. The following reaction protocol was run on the QuantStudio 7: 48° C. for 15 min, 50° C. for 2 min, 95° C. for 30 sec, 40×, 95° C. for 5 sec, 60° C. for 30 sec, then plates were read as specified by the manufacturer (Thermo). For 1-step RT-Preamplification used for detection of DUX4 downstream genes, i.e. MBD3L2, ZSCAN4, LEUTX, TRIM43, KHDC1L. POL2RA-VIC was used as Endogenous control). Per 10 μL reaction: RNA (1:10 dilution lysate) 2.25 μL, Taqman Pre-Amp Master Mix (2×) 5 μL, RT enzyme mix (40×) 0.25 μL, Taqman probe set (0.2×)*2.5 μL, * Pooling the TaqMan Assays: equal volumes of each 20× TaqMan® Gene Expression Assay, up to 100 assays were combined. For example, to pool 50 TaqMan assays, 10 μL of each assay were combined in a microcentrifuge tube. The pooled TaqMan assays were diluted using 1×TE buffer so that each assay is at a final concentration of 0.2×. For the above example, add 500 μL of 1×TE buffer to the pooled TaqMan assays for a total final volume of 1 mL. The QuantStudio7 protocol was used 48° C. 15 min, 95° C. 10 min, 10 cycles: 95° C. 15 sec, 60° C. 4 min, 4° C. infinite. Samples were then diluted to 50 μL and continue with the qPCR step. Per 10 μL reaction: Preamp dilution 2 μL, Fast Advanced Taqman Master Mix (2×) 5 μL, Taqman probe set (20×) 0.5 μL, H2O 2.5 μL. When multiplexing the volume was adjusted to 10 μL total). The following program was run on the QuantStudio7: 50° C. for 2 min, 95° C. for 30 sec, 40×, 95° C. for 5 sec, 60° C. for 30 sec, plates were read as per the manufacturers specifications (Thermo).\n(§5) After treatment, the control and treated cells were processed for realtime PCR quantification of MBD3L2 mRNA (DUX4 downstream gene) and myogenin (MYOG) mRNA (control) expression."}, "myogenin (MYOG) mRNA": {"test_system": "myogenin (MYOG) mRNA", "assay": "Myogenin (MYOG) mRNA expression by qPCR in FSHD myotubes (control gene)", "description": "as §1, §2, §3\nas §4, with “For the above example, add 500 μL of 1×TE buffer to the pooled TaqMan assays for a total final volume of 1 mL. The QuantStudio7 protocol was used 48° C. 15 min, 95° C. 10 min, 10 cycles: 95° C. 15 sec, 60° C. 4 min, 4° C. infinite. Samples were then diluted to 50 μL and continue with the qPCR step. Per 10 μL reaction: Preamp dilution 2 μL, Fast Advanced Taqman Master Mix (2×) 5 μL, Taqman probe set (20×) 0.5 μL, H2O 2.5 μL. When multiplexing the volume was adjusted to 10 μL total).” left out\nas §5"}, "FSHD myotubes": {"test_system": "FSHD myotubes", "assay": "Myotube formation / fusion, MHC and DAPI staining", "settings": "FSHD myotubes; 10, 100, and 1000 nM", "description": "as §2\nBriefly, cells were fixed in 4% paraformaldehyde and […] for 10 min at room temperature. Cells were permeabilized with PBST (1×PBS solution with 0.1% Triton X-100) before blocking with 10% Normal Donkey Serum or 3% BSA (NDS) in PBST. […] DUX4 was detected by immunocytochemistry using the E5-5 antibody in differentiated FSHD myotubes. Activated Caspase-3 was detected cell signaling antibody that we're using for ICC, Asp175 (https://www.cellsignal.com/products/primary-antibodies/cleaved-caspase-3-asp175-antibody/9661).\nImmortalized FHSD myotubes were differentiated and treated with DMSO vehicle control or FTX-1821 at concentrations of 1 μM, 0.33 μM, 0.11 μM, or 0.037 μM. […] The nuclei in myotubes were quantified according to MHC staining (FIG. 8B)."}, "active Caspase-3": {"test_system": "active Caspase-3", "assay": "Apoptosis by active Caspase-3 in FSHD myotubes", "settings": "FSHD1 and FSHD2 lines; 1 μM", "description": "Briefly, cells were fixed in 4% paraformaldehyde and […] for 10 min at room temperature. Cells were permeabilized with PBST (1×PBS solution with 0.1% Triton X-100) before blocking with 10% Normal Donkey Serum or 3% BSA (NDS) in PBST. Cells were then incubated with appropriately diluted primary antibodies in PBST with 5% NDS for 1 hours at room temperature or 12 hours at 4° C., washed with PBST for 3 times at room temperature and then incubated with desired secondary antibodies in TBST with 5% NDS and DAPI to counter stain the nuclei. DUX4 was detected by immunocytochemistry using the E5-5 antibody in differentiated FSHD myotubes. Activated Caspase-3 was detected cell signaling antibody that we're using for ICC, Asp175 (https://www.cellsignal.com/products/primary-antibodies/cleaved-caspase-3-asp175-antibody/9661).\nApoptosis was measured by active Caspase-3 levels in FSHD myotubes in vitro as described in Materials and Methods. Apoptosis was detected in a sporadic manner in a subset of myotubes in culture as shown by the white circles and magnified region in FIG. 9A. Active Caspase-3 signal was quantified in FSHD myotubes that had been treated with FTX-1821 at different concentrations (FIG. 9B). […] No change in active Caspase-3 signal was observed following DMSO treatment."}}}
{"smiles": "Cn1c(=O)c(Oc2ccc(F)cc2F)cc2cnc(NC(CCO)CCO)nc21", "note": "[Pamapimod, 6-(2,4-difluorophenoxy)-2-((1,5-dihydroxypentan-3-yl)amino)-8-methylpyrido[2,3-d]pyrimidin-7(8H)-one]", "values": [{"measurement": "MBD3L2 mRNA expression", "setting": "[1]; FSHD1 and FSHD2 primary patient myoblast lines, 1 μM", "result": "reduction of MBD3L2"}, {"measurement": "MBD3L2 downstream gene mRNA levels normalized to POLR2A mRNA", "setting": "[1]; FSHD myotubes, 10, 100, and 1000 nM vs DMSO", "result": "dose-dependently reduced"}, {"measurement": "IC50", "setting": "[1]; Homo sapiens, Myotube, read-out: IC50, reduction of MBD3L2 mRNA expression, FSHD myotubes, realtime PCR", "result": "< 10", "unit": "nM"}, {"measurement": "MBD3L2 expression levels", "setting": "[1]; myotubes of four FSHD patient lines FTCE-016, -020, -197, -196, 1 μM", "result": "reduced in all of the FSHD lines"}, {"measurement": "MYOG mRNA expression", "setting": "myogenin (MYOG) mRNA", "result": "no impact"}, {"measurement": "differentiation into myotubes", "setting": "FSHD myotubes", "result": "without impacting"}, {"measurement": "apoptosis (active caspase-3)", "setting": "active Caspase-3", "result": "reduction in apoptosis"}]}
